Measurements: article PMC10914734 (Signal Transduction and Targeted Therapy, 2024)

Target: Human CTSL (Homo sapiens, UniProt P07711)
Experiment: FRET-based cleavage assay, enzymatic inhibition of human CTSL
Settings: not given

Chain of Human CTSL (P07711 114-333): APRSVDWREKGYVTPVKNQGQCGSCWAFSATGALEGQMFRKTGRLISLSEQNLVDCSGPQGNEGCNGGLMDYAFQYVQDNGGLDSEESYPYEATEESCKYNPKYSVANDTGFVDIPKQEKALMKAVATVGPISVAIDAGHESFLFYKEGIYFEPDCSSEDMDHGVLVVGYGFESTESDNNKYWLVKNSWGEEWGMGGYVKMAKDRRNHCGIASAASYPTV

Point of comparison: `O=C(N[C@@H](Cc1ccc(F)cc1)C(=O)N[C@H](/C=N/Nc1ncccn1)C[C@@H]1CCCNC1=O)c1cc2ccccc2o1` [14h, N-((S)-3-(4-fluorophenyl)-1-oxo-1-(((S,E)-1-((S)-2-oxopiperidin-3-yl)-3-(2-(pyrimidin-2-yl)hydrazineylidene)propan-2-yl)amino)propan-2-yl)benzofuran-2-carboxamide], IC50 1600 nM. Against it:
- O=C(N[C@@H](Cc1ccc(F)cc1)C(=O)N[C@H](/C=C/S(=O)(=O)c1ccccc1)C[C@@H]1CCCNC1=O)c1cc2ccccc2o1 [14c, N-((S)-3-(4-fluorophenyl)-1-oxo-1-(((S,E)-1-((S)-2-oxopiperidin-3-yl)-4-(phenylsulfonyl)but-3-en-2-yl)amino)propan-2-yl)benzofuran-2-carboxamide] — 32-fold lower, 50.3 ± 12.1 nM
- O=C(N/N=C/[C@H](C[C@@H]1CCCNC1=O)NC(=O)[C@H](Cc1ccc(F)cc1)NC(=O)c1cc2ccccc2o1)c1ccccc1 [14e, N-((S)-1-(((S,E)-1-(2-benzoylhydrazineylidene)-3-((S)-2-oxopiperidin-3-yl)propan-2-yl)amino)-3-(4-fluorophenyl)-1-oxopropan-2-yl)benzofuran-2-carboxamide] — 2.5-fold higher, 3940 nM
- O=C(N[C@@H](Cc1ccc(F)cc1)C(=O)N[C@H](/C=N/NC(=O)C1CCCCC1)C[C@@H]1CCCNC1=O)c1cc2ccccc2o1 [14f, N-((S)-1-(((S,E)-1-(2-(cyclohexanecarbonyl)hydrazineylidene)-3-((S)-2-oxopiperidin-3-yl)propan-2-yl)amino)-3-(4-fluorophenyl)-1-oxopropan-2-yl)benzofuran-2-carboxamide] — 5.3-fold higher, 8530 nM
- O=C(N[C@@H](Cc1ccc(F)cc1)C(=O)N[C@H](/C=N/NC(=O)C1CC1)C[C@@H]1CCCNC1=O)c1cc2ccccc2o1 [14g, N-((S)-1-(((S,E)-1-(2-(cyclopropanecarbonyl)hydrazineylidene)-3-((S)-2-oxopiperidin-3-yl)propan-2-yl)amino)-3-(4-fluorophenyl)-1-oxopropan-2-yl)benzofuran-2-carboxamide] — within 1.5-fold, 1320 nM
- O=C(O)/C(F)=C/[C@H](C[C@@H]1CCCNC1=O)NC(=O)[C@H](CC1CCCCC1)NC(=O)c1cc2ccccc2o1 [14i, (S,Z)-4-((S)-2-(benzofuran-2-carboxamido)-3-cyclohexylpropanamido)-2-fluoro-5-((S)-2-oxopiperidin-3-yl)pent-2-enoic acid] — within 1.5-fold, 2160 nM
- CC1(C)[C@@H]2[C@@H](C(=O)N[C@@H](C[C@@H]3CCCNC3=O)C(=O)C(=O)NCc3ccccc3)N(C(=O)c3cc4ccccc4o3)C[C@@H]21 [14m, (1R,2S,5S)-3-(benzofuran-2-carbonyl)-N-((S)-4-(benzylamino)-3,4-dioxo-1-((S)-2-oxopiperidin-3-yl)butan-2-yl)-6,6-dimethyl-3-azabicyclo[3.1.0]hexane-2-carboxamide] — within 1.5-fold, 1870 nM

Same assay, conditions: read-out: IC50, enzymatic inhibitory activity against human CTSL; mean ± SD

`O=C(N[C@@H](CC1C=CC=CC1)C(=O)N[C@H](/C=C/S(=O)(=O)c1ccccc1)C[C@@H]1CCCNC1=O)c1cc2ccccc2o1` (stereo partly drawn) [14d, N-((2S)-3-(cyclohexa-2,4-dien-1-yl)-1-oxo-1-(((S,E)-1-((S)-2-oxopiperidin-3-yl)-4-(phenylsulfonyl)but-3-en-2-yl)amino)propan-2-yl)benzofuran-2-carboxamide] was tested, and the IC50 was 77.2 ± 12 nM.

Same assay, conditions: read-out: Inhibition rate against human CTSL

Point of comparison: `CCOC(=O)/C(F)=C/[C@H](C[C@@H]1CCCNC1=O)NC(=O)[C@H](CC1CCCCC1)NC(=O)c1cc2ccccc2o1` [14j, Ethyl (S,Z)-4-((S)-2-(benzofuran-2-carboxamido)-3-cyclohexylpropanamido)-2-fluoro-5-((S)-2-oxopiperidin-3-yl)pent-2-enoate], inhibition at 1 µM 30%. Against it:
- O=C(NC1CC1)/C(F)=C/[C@H](C[C@@H]1CCCNC1=O)NC(=O)[C@H](CC1CCCCC1)NC(=O)c1cc2ccccc2o1 [14k, N-((S)-3-cyclohexyl-1-(((S,Z)-5-(cyclopropylamino)-4-fluoro-5-oxo-1-((S)-2-oxopiperidin-3-yl)pent-3-en-2-yl)amino)-1-oxopropan-2-yl)benzofuran-2-carboxamide] — higher, 37%
- O=C(NCc1ccccc1)C(=O)[C@H](C[C@@H]1CCCNC1=O)NC(=O)[C@@H]1[C@H]2CCC[C@H]2CN1C(=O)c1cc2ccccc2o1 [14l, (1S,3aR,6aS)-2-(benzofuran-2-carbonyl)-N-((S)-4-(benzylamino)-3,4-dioxo-1-((S)-2-oxopiperidin-3-yl)butan-2-yl)octahydrocyclopenta[c]pyrrole-1-carboxamide] — lower, 12%
